PMC9284842, “Allosteric activation of the metabolic enzyme GPD1 inhibits bladder cancer growth via the lysoPC-PAFR-TRPV2 axis” (Journal of Hematology & Oncology, 2022)

Assays:
GPD1 [1] = target: T1, GPD1 (Homo sapiens, UniProt P21695); experiment: microscale thermophoresis (Monolith NT.[…], Hill fit); type: binding
T1 construct: purchased recombinant protein (Proteintech Ag4471); Red-NHS dye labelled for MST; source of enzyme in activity assay not restated
T1 sequence (P21695 1-349): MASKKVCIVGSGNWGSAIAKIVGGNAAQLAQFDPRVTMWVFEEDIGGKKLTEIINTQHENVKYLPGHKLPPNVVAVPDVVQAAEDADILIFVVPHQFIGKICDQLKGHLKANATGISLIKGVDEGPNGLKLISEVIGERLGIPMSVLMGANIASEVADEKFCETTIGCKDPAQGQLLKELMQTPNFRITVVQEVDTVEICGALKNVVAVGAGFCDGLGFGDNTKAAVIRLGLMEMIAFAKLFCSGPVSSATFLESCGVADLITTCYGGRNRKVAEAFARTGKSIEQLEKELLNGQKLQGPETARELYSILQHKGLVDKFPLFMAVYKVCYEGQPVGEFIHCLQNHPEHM

GPD1 [2] = target: T1, GPD1; experiment: NADH absorbance at […] nm, initial rate of DHAP reduction; type: biochemical; details: 200 uM NADH, 8 mM DHAP, 1 uM GPD1, 20 mM TEA, 0.1 mg/mL BSA, I = 0.12 (NaCl); activator, proposed allosteric

Kd (GPD1 [1]): 505 nM
Structure (SMILES): COc1cc(O)c2c(c1)oc(=O)c1c3cc(O)c(O)cc3oc21 [wedelolactone]
activation (GPD1 [2]): wedelolactone (WE) from Bioactive Compound Library Plus in MedChemExpress LLC had substantial activity
